# The supplement of paper PMC4862054
# Where “and” joins values, the source holds several entries; their conditions need not be identical. Equal entries are not always repeated.
# Key:
# [1] = tested on: BT-474; assay: normalised viability (% of control), CellTiter-Blue; higher = more viable cells (about 100 = DMSO control); settings: incubation time: 72 h
# Description: (§1)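 DSRT, CellTiter-Blue viability, 72 h incubation. Signal is normalised to DMSO and benzethonium chloride controls. Value is the normalised response at dose 3.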
# [2] = tested on: BT-549; assay: as above; settings: incubation time: 72 h
# Description: as §1
# [3] = tested on: CAL-120; assay: as above; settings: incubation time: 72 h
# Description: as §1
# [4] = tested on: CAL-148; assay: as above; settings: incubation time: 72 h
# Description: as §1
# [5] = tested on: CAL-51; assay: as above; settings: incubation time: 72 h
# Description: as §1
# [6] = tested on: CAL-85-1; assay: as above; settings: incubation time: 72 h
# Description: as §1
# [7] = tested on: DU-4475; assay: as above; settings: incubation time: 72 h
# Description: as §1
# [8] = tested on: HCC1599; assay: as above; settings: incubation time: 72 h
# Description: as §1
# [9] = tested on: HCC1937; assay: as above; settings: incubation time: 72 h
# Description: as §1
# [10] = tested on: HDQ-P1; assay: as above; settings: incubation time: 72 h
# Description: as §1
# [11] = tested on: Hs578T; assay: as above; settings: incubation time: 72 h
# Description: as §1
# [12] = tested on: MDA-MB-436; assay: as above; settings: incubation time: 72 h
# Description: as §1
# [13] = tested on: MDA-MB-453; assay: as above; settings: incubation time: 72 h
# Description: as §1
# [14] = tested on: MFM-223; assay: as above; settings: incubation time: 72 h
# Description: as §1
# [15] = tested on: SK-BR-3; assay: as above; settings: incubation time: 72 h
# Description: as §1
# [16] = tested on: CAL-120; assay: drug sensitivity score (DSS), CellTiter-Blue viability (DSS (AUC-based score)); higher = stronger viability inhibition; extreme values may be limits of the assay; settings: incubation time: 72 h
# Description: (§2)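 DSRT with the CellTiter-Blue (resazurin reduction) viability readout, fluorescence 560/590 nm, 72 h incubation. Plates were normalised to DMSO and benzethonium chloride controls. DSS is computed from the area under the fitted dose-response curve (5 or 9 concentrations).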
# [17] = tested on: SK-BR-3; assay: as above; settings: incubation time: 72 h
# Description: as §2
# [18] = tested on: BT-474; assay: drug sensitivity score (DSS), CellTox Green (DSS (AUC-based score)); higher = stronger drug effect (viability inhibition or cytotoxicity); extreme values may be limits of the assay; settings: incubation time: 72 h
# In short: (§3)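 In 384-well plates, compound was laid out at 5 concentrations in 10-fold steps over a 10,000-fold range specific to each compound, and breast cancer cell lines were seeded on top in 20 µl suspension for a 72 h incubation. CellTox Green fluorescence and then CellTiter-Glo luminescence were read, and each plate was normalised to 0.1 % DMSO and a positive kill control. The drug sensitivity score was calculated from the area under the fitted dose-response curve.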
# [19] = tested on: BT-549; assay: as above; settings: incubation time: 72 h
# In short: as §3
# [20] = tested on: CAL-120; assay: as above; settings: incubation time: 72 h
# In short: as §3
# [21] = tested on: HCC1143; assay: as above; settings: incubation time: 72 h
# In short: as §3
# [22] = tested on: HCC1937; assay: as above; settings: incubation time: 72 h
# In short: as §3
# [23] = tested on: Hs578T; assay: as above; settings: incubation time: 72 h
# In short: as §3
# [24] = tested on: MCF-10A; assay: as above; settings: incubation time: 72 h
# In short: as §3
# [25] = tested on: MDA-MB-468; assay: as above; settings: incubation time: 72 h
# In short: as §3
# [26] = tested on: MDA-MB-231; assay: normalised viability (% of control), CellTiter-Blue; higher = more viable cells (about 100 = DMSO control); settings: 100 nM; incubation time: 72 h
# Description: as §1
# [27] = tested on: MDA-MB-468; assay: as above; settings: incubation time: 72 h
# Description: as §1
Compound,drug sensitivity score [16],drug sensitivity score [17],drug sensitivity score [18],drug sensitivity score [19],drug sensitivity score [20],drug sensitivity score [21],drug sensitivity score [22],drug sensitivity score [23],drug sensitivity score [24],drug sensitivity score [25],normalised viability ([1]; 100 nM),normalised viability ([2]; 100 nM),normalised viability ([3]; 100 nM),normalised viability ([4]; 10 nM),normalised viability ([5]; 10 nM),normalised viability ([6]; 10 nM),normalised viability ([8]; 100 nM),normalised viability ([9]; 100 nM),normalised viability ([10]; 10 nM),normalised viability ([11]; 100 nM),also measured
Cc1nc(Nc2ncc(C(=O)Nc3c(C)cccc3Cl)s2)cc(N2CCN(CCO)CC2)n1 [Dasatinib],11.2 and 13.7,0,0,2.37,0,0,0,6.23,7.15,0,,,,,,,,,,,normalised viability ([1]; 10 nM): 117% and 108%; normalised viability ([2]; 10 nM): 91.5% and 93.8%; normalised viability ([3]; 10 nM): 93.2% and 80.5%; normalised viability ([4]; 1 nM): 98.7% and 85.7%; normalised viability ([5]; 1 nM): 100% and 106%; normalised viability ([6]; 1 nM): 100% and 99.7%; normalised viability ([7]; 1 nM): 105% and 111%; normalised viability ([8]; 10 nM): 105% and 123%; normalised viability ([9]; 10 nM): 87.7% and 94.3%; normalised viability ([10]; 1 nM): 92.8% and 87.5%; normalised viability ([11]; 10 nM): 77.6% and 80.5%; normalised viability ([12]; 10 nM): 102% and 88.7%; normalised viability ([13]; 1 nM): 100%; normalised viability ([14]; 10 nM): 91.8% and 88%; normalised viability ([15]; 10 nM): 89.4% and 82.9%
O=S(=O)(c1cccc2cnccc12)N1CCCNCC1 [Fasudil],0,0,0,0,0,0,0,0,0,,117%,95.6%,89.4%,93.1%,112%,97.7%,100%,91.7%,103%,97.5%,normalised viability ([7]; 10 nM): 107%; normalised viability [26]: 96%; normalised viability ([12]; 100 nM): 100%; normalised viability ([13]; 10 nM): 103%; normalised viability ([27]; 100 nM): 106%; normalised viability ([14]; 100 nM): 93.6%; normalised viability ([15]; 100 nM): 86.2%
CS(=O)(=O)N1CCN(Cc2cc3nc(-c4cccc5[nH]ncc45)nc(N4CCOCC4)c3s2)CC1 [GDC-0941],10.5,19.4,,,,,,,,,102%,92.8%,75.5%,85.6%,109%,90.7%,69.2%,99.1%,101%,89.1%,normalised viability ([7]; 10 nM): 108%; normalised viability [26]: 83.2%; normalised viability ([12]; 100 nM): 91.6%; normalised viability ([27]; 100 nM): 84.2%; normalised viability ([14]; 100 nM): 82%; normalised viability ([15]; 100 nM): 58.7%
Cc1cccc(-c2nn3c(c2-c2ccnc4ccc(C(N)=O)cc24)CCC3)n1 [Galunisertib],,,0,0,0,0,0,0,0,0,,,,,,,,,,,
COc1nc(N)nc2c1ncn2[C@@H]1O[C@H](CO)[C@@H](O)[C@@H]1O [Nelarabine],0,0,0,0.855,0,0,0,0,0,0,87.4% and 96.1%,88.7% and 74.2%,112% and 101%,104% and 85.5%,102% and 103%,94.4% and 97.7%,98.1% and 113%,93.1% and 85.6%,82.8% and 82.6%,75.9% and 85.7%,normalised viability [26]: 92.8% and 89.7%; normalised viability ([12]; 100 nM): 90.6% and 83.6%; normalised viability ([13]; 10 nM): 97.4% and 102%; normalised viability ([27]; 100 nM): 104% and 97.9%; normalised viability ([14]; 100 nM): 103% and 101%
CS(=O)(=O)N1CCN(Cc2cc3nc(-c4cccc5[nH]ncc45)nc(N4CCOCC4)c3s2)CC1 [Pictilisib],,,1.54,0,0,0,0,0,7.08,0,,,,,,,,,,,
O=C(NC[C@H](O)CO)c1ccncc1Nc1ccc(I)cc1F [Pimasertib],,,2.1,0,2.8,0,0,0,0,0,,,,,,,,,,,
Cn1cc(CNCC2CCN(c3ncc(C(=O)NO)cn3)CC2)c2ccccc21 [Quisinostat],,,11,0,13.6,2.18,0,13.2,0,18.9,,,,,,,,,,,
CC(C)N(CCCNC(=O)Nc1ccc(C(C)(C)C)cc1)C[C@H]1O[C@@H](n2cc(Br)c3c(N)ncnc32)[C@H](O)[C@@H]1O [SGC0946],,,0,0,0,0,0,,0,0,,,,,,,,,,,
CNC(=O)c1cc(Oc2ccc(NC(=O)Nc3ccc(Cl)c(C(F)(F)F)c3)cc2)ccn1 [Sorafenib],0,0,0,0,0,0,0,0,0,0,,,,,,,,,,,normalised viability ([1]; 10 nM): 114% and 99.3%; normalised viability ([3]; 10 nM): 102% and 96%; normalised viability ([4]; 1 nM): 102% and 90%; normalised viability ([5]; 1 nM): 114% and 99%; normalised viability ([6]; 1 nM): 96.3% and 109%; normalised viability ([7]; 1 nM): 118% and 131%; normalised viability ([8]; 10 nM): 113% and 129%; normalised viability ([9]; 10 nM): 83.9% and 84.5%; normalised viability ([10]; 1 nM): 105% and 91.4%; normalised viability ([11]; 10 nM): 90% and 86.3%; normalised viability ([12]; 10 nM): 110% and 113%; normalised viability ([13]; 1 nM): 103% and 109%; normalised viability ([27]; 10 nM): 114% and 97.8%; normalised viability ([14]; 10 nM): 94.7% and 95%
